Results from ChEMBL document CHEMBL5653631, “A Potent and Selective ULK1 Inhibitor Suppresses Autophagy and Sensitizes Cancer Cells to Nutrient Stress” (iScience, 2018).
Values belong to the compound of their own block, whether it stands above or below them.

Assays:
[1] = biological target: Tyrosine-protein kinase SYK (Homo sapiens) (UniProt P43405); assay: Inhibition of human recombinant SYK at 500 nM related to control ULK1
[2] = biological target: T1, Mitogen-activated protein kinase kinase kinase kinase 2 (Homo sapiens) (UniProt Q12851); assay: Inhibition of human recombinant GCK at 500 nM in presence of ATP by radiometric assay relative to control
T1 sequence (whole entry): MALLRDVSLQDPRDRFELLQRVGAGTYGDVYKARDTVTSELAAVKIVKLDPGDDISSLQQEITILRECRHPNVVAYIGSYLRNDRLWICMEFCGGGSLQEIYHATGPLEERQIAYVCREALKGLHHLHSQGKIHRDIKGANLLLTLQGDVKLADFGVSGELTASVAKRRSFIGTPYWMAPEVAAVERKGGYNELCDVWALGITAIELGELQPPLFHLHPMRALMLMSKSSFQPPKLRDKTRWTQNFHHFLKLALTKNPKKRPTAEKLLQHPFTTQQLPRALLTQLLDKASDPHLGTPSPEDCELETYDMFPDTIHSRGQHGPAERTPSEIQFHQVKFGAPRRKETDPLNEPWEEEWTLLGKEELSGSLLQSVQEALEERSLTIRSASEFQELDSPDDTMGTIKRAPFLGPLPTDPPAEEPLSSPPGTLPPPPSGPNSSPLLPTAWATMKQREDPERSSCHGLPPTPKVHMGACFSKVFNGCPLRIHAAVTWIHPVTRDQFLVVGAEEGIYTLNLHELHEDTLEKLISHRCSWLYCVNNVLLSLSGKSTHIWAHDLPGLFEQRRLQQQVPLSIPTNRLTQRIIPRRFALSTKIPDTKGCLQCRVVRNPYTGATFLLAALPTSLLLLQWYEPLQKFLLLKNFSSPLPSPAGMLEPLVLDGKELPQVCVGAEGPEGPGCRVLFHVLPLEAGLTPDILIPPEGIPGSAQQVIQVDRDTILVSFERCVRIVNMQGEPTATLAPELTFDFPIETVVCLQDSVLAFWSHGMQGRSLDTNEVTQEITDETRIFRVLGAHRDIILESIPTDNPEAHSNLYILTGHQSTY

[3] = biological target: Transcription initiation factor TFIID subunit 1-like (Homo sapiens) (UniProt Q8IZX4); assay: Inhibition of human recombinant TAF1L at 500 nM in presence of ATP by radiometric assay relative to control
[4] = biological target: T2, Testis-specific serine/threonine-protein kinase 2 (Homo sapiens) (UniProt Q96PF2); assay: Inhibition of human recombinant TSSK2 at 15 nM in presence of ATP by radiometric assay relative to control
T2 sequence (whole entry): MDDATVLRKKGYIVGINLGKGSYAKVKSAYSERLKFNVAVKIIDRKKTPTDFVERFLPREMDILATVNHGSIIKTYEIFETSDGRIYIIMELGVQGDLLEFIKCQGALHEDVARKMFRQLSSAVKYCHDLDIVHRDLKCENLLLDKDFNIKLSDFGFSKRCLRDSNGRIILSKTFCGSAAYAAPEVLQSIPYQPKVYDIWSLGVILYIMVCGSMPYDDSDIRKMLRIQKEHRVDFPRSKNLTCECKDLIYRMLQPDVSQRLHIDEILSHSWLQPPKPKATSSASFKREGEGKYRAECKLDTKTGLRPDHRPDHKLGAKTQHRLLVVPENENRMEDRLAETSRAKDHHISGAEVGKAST

[5] = biological target: T3, Serine/threonine-protein kinase ULK1 (Homo sapiens) (UniProt O75385); assay: Inhibition of human recombinant ULK1 at 15 nM in presence of ATP by radiometric assay relative to control
T3 sequence (whole entry): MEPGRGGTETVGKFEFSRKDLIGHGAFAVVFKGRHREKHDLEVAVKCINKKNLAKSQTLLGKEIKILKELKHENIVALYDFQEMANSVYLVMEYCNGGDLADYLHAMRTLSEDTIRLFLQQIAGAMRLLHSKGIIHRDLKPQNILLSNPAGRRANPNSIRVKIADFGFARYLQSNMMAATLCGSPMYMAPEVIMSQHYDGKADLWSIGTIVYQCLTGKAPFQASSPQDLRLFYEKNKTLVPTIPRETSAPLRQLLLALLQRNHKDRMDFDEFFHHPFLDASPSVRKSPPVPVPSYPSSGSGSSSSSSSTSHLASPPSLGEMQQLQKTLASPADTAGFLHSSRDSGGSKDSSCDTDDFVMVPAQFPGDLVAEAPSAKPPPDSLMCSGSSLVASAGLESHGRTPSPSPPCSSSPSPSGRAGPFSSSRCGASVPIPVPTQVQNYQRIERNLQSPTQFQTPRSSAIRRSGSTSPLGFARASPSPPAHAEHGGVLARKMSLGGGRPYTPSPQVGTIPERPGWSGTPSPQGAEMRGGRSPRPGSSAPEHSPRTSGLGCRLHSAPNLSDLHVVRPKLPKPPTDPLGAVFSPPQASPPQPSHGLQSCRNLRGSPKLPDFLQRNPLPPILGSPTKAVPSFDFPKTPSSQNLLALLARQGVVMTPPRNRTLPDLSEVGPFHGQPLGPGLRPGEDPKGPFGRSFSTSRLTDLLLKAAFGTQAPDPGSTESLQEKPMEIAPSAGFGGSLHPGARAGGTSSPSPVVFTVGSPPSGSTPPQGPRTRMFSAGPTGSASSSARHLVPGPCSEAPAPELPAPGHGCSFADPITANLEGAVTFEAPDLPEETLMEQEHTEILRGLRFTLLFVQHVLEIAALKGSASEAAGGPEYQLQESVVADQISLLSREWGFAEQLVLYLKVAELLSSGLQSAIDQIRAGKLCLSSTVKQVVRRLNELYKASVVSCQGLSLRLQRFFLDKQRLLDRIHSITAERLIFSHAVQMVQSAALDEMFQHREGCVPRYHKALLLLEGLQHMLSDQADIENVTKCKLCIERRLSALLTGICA

[6] = biological target: T4, Dual specificity mitogen-activated protein kinase kinase 6 (Homo sapiens) (UniProt P52564); assay: Inhibition of human recombinant MAP2K6 at 15 nM related to control ULK1
T4 sequence (whole entry): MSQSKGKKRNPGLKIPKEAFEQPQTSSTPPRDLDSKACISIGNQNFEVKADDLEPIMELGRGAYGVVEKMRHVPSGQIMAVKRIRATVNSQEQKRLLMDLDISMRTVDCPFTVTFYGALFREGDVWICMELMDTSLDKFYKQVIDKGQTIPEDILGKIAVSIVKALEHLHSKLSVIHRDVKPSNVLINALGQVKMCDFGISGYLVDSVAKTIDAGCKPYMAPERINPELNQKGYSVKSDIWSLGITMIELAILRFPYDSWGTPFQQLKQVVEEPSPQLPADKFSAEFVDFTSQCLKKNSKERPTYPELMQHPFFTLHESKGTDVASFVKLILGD

[7] = biological target: Calcium/calmodulin-dependent protein kinase type II subunit delta (Homo sapiens) (UniProt Q13557); assay: Inhibition of human recombinant CaMK2d at 15 nM in presence of ATP by radiometric assay relative to control
[8] = biological target: Serine/threonine-protein kinase WNK1 (Homo sapiens) (UniProt Q9H4A3); assay: Inhibition of human recombinant Wnk1 at 40 nM related to control ULK1
Sequence of Serine/threonine-protein kinase WNK1 (Homo sapiens) (Q9H4A3 whole entry, looked up): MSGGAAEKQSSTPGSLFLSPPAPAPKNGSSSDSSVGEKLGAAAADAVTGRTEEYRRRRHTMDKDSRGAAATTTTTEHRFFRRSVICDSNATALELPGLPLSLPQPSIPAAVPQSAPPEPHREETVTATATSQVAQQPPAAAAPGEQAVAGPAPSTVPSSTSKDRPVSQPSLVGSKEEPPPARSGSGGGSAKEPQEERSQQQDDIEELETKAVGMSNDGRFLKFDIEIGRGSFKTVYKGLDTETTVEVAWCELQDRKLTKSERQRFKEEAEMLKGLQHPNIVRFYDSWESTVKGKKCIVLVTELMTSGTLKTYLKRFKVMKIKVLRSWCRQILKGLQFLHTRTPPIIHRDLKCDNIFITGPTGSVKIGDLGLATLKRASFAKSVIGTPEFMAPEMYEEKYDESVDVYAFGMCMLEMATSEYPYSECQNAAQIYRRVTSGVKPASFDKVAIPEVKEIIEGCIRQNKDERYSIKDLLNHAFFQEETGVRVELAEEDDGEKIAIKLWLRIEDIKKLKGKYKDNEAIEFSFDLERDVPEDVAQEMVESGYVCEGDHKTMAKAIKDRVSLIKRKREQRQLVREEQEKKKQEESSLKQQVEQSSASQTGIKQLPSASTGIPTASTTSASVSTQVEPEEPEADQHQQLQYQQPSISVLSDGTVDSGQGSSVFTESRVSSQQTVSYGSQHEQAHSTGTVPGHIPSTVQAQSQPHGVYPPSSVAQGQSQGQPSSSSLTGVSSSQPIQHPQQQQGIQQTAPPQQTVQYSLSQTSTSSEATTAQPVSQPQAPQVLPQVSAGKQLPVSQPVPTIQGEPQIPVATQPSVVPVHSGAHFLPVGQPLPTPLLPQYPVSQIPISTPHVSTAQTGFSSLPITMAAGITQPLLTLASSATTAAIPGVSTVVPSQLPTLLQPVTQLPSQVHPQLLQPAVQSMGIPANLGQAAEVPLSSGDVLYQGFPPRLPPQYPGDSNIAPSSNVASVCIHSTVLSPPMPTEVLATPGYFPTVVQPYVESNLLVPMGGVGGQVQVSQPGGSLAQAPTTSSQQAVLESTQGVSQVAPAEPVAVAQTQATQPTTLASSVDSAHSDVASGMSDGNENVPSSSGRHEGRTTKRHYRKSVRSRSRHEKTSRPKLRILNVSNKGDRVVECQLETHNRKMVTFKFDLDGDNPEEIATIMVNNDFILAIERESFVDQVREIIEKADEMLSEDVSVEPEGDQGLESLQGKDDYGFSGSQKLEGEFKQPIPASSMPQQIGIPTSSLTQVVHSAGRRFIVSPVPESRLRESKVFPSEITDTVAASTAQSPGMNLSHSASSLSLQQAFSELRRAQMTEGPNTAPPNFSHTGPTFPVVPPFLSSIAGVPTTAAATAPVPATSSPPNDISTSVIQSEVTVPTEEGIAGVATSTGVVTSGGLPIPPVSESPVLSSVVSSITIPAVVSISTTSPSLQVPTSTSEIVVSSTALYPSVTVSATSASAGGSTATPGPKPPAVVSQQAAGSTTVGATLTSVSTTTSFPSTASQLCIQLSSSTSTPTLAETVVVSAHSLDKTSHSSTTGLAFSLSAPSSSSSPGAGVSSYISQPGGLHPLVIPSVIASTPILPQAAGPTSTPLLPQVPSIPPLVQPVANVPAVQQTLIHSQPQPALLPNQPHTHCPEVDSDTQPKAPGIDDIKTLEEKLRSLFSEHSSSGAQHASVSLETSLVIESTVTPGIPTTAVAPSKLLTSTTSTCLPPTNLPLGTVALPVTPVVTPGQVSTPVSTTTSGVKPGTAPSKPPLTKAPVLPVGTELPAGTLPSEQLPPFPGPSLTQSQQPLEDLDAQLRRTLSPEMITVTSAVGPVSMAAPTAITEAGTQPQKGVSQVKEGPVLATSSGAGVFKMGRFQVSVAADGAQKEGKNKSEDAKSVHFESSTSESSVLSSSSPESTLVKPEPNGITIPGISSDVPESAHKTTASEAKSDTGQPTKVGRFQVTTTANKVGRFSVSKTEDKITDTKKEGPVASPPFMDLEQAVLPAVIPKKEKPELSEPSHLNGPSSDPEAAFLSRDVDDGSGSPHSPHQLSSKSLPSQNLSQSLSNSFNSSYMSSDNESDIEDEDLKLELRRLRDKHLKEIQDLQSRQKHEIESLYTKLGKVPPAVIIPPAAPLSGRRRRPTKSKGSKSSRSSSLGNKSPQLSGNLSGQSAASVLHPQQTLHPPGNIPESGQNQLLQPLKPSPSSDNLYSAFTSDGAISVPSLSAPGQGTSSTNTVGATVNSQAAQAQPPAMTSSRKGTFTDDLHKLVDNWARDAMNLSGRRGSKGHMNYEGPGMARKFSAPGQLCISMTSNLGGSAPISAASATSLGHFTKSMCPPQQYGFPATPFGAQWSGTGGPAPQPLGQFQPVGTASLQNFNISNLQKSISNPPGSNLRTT

Sequence of Transcription initiation factor TFIID subunit 1-like (Homo sapiens) (Q8IZX4 whole entry): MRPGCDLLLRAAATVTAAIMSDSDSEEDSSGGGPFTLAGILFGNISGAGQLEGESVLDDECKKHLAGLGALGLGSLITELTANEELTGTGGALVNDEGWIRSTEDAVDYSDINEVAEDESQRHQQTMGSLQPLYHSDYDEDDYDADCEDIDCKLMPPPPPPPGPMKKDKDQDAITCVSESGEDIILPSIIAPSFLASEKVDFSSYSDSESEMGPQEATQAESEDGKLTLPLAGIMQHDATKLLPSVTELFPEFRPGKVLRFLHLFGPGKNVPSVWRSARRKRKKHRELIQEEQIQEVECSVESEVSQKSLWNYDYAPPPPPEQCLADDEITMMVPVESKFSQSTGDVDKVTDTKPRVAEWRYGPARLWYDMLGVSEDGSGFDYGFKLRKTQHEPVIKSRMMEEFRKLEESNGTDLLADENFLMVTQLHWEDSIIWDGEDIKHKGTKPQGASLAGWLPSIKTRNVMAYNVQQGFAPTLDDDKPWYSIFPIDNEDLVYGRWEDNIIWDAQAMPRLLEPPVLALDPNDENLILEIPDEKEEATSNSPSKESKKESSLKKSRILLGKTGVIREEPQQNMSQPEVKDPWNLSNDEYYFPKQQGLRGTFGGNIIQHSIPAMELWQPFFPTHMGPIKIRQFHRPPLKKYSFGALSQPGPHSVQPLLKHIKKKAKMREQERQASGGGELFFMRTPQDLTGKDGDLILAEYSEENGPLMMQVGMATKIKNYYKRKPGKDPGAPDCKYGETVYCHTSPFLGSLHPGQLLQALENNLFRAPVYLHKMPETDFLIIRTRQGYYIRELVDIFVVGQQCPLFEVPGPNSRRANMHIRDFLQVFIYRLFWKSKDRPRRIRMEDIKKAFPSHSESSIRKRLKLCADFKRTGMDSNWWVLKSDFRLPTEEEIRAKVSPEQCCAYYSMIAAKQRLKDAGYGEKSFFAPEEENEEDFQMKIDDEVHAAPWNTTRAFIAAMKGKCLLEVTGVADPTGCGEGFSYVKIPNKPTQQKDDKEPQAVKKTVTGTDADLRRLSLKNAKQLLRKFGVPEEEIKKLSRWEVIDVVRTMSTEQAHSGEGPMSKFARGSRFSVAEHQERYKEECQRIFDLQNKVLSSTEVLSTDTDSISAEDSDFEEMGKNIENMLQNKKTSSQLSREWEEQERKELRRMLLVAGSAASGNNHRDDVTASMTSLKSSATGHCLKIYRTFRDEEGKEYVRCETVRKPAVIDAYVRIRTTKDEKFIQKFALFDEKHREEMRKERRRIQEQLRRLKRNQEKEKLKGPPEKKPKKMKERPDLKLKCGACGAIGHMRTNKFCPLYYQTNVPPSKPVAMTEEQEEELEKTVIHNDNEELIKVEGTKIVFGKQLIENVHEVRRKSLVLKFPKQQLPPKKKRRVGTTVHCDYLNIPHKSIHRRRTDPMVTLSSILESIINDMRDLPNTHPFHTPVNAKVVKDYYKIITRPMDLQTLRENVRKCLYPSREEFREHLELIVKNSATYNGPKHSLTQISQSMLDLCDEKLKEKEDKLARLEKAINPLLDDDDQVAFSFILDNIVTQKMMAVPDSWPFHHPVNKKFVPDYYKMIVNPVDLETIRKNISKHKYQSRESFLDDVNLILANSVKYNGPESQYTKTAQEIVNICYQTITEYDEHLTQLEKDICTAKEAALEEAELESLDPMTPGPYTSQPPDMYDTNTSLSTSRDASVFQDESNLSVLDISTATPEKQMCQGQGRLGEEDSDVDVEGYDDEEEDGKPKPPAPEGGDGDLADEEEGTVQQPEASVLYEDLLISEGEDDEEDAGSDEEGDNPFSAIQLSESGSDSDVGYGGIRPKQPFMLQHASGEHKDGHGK
Sequence of Calcium/calmodulin-dependent protein kinase type II subunit delta (Homo sapiens) (Q13557 whole entry): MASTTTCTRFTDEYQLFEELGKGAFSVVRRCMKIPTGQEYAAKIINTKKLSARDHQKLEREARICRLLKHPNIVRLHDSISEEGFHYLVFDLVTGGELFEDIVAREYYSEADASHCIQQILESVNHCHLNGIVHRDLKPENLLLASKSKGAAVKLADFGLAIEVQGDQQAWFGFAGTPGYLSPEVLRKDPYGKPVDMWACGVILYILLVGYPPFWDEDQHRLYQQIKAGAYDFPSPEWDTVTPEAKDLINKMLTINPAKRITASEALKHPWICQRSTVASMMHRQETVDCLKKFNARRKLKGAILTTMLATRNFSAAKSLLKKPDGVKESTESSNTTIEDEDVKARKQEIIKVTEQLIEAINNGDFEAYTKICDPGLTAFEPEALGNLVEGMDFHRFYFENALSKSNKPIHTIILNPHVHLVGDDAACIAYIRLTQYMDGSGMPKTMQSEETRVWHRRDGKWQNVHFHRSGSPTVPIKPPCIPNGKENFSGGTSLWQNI

fold change (FC) [1]: 0 | inhibition [2]: 33% | inhibition [3]: 0%
Compound: CNC(=O)c1ccccc1Oc1nc(Nc2cc(OC)c(OC)c(OC)c2)ncc1Br

inhibition [4]: 1% | inhibition [5]: 88% | fold change (FC) [6]: 0.06 | inhibition [7]: 20%
Compound: CC(C)[C@H](NC(=O)c1cc(-c2cnn3cc(-c4ccc(OCCN5CCCCC5)cc4)cnc23)cs1)C(F)(F)F

fold change (FC) [8]: 0.16
Compound: O=C(N[C@@H](C1CC1)C(F)(F)F)c1cc(-c2cnn3cc(-c4ccc(F)cc4)cnc23)cs1
